Measured values from patent publication US20190225650A1, “PEPTIDOMIMETIC MACROCYCLES AND USE THEREOF IN REGULATING HIF1ALPHA” (AILERON THERAPEUTICS, INC., priority 2013, published 2019).
Bridge positions count the residues as written; N and C are the ends. Square brackets hold non-standard residues; d marks the D form. Peptide text beside a SMILES is read from it. R8 = C=CCCCCCC[C@@](C)(N)C(=O)O; S5 = C=CCCC[C@](C)(N)C(=O)O; Nle = CCCC[C@H](N)C(=O)O

Experiments:
[1] = target: T1, flag-tagged HIF1α (AA 786-826) / His6-tagged p300 (AA 323-423) complex (Homo sapiens, UniProt Q09472); assay: HIF1α p300 displacement assay (TR FRET, +CHAPS); assay type: binding; details: read-out: IC50 (nM) (HIF1α_p300 Displacement + CHAPS)
T1 construct: His6-tagged p300 (AA 323-423); made in house; host or cells: E. coli (pETDuet vector)
In short: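 The co-expressed flag-HIF1α (786-826)/His6-p300 (323-423) complex, purified from E. coli with 0.1 mM ZnSO4, was used at 300 nM final with competitor peptides for 1 h at room temperature. Buffer was 150 mM NaCl, 20 mM HEPES pH 7.4, 7.5 mM CHAPS and 1 mM DTT. Anti-Flag-K (0.5 μM) and anti-His-D2 (4 nM) were then added for 2 h, and IC50s were fitted from the TR-FRET ratio.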

HRE-bla ME-180 cells [2] = assay: Cell proliferation assay (viability, MTT, 1% FBS); assay type: cell-based, human
In short: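 ME-180 cells (2×10^4/well) in Opti-MEM with 1% FBS were pretreated 16 h under normoxia (21% O2), vehicle 0.5% DMSO final. Incubation then continued under normoxia or hypoxia (1% O2); viable cells quantified by MTT-type CellTiter 96 assay.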

HRE-bla ME-180 cells [3] = assay: Reporter gene assay (HRE-bla ME-180 HIF reporter, GeneBLAzer); assay type: cell-based, human; details: for EC50: 24 hour normoxia
In short: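 A FRET β-lactamase readout of HIF transcription was used. After compound treatment in 0.3% DMSO/media under normoxic conditions, 20 μl of 6× LiveBLAzer-FRET B/G (CCF4-AM) substrate was added. Plates sat 3 hr at room temperature in the dark and were read at 409 Ex/460Em and 409Ex/530Em on a Synergy 2. Inhibition was compared against DMSO vehicle controls, with chetomin as positive control.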

| SMILES | IC50 [1] | Viability 1% FBS AVG (MTT V3-24 hr Normoxia) (μM) (HRE-bla ME-180 cells [2]) | 18 h Avg % max inhibition at top conc (HIF Rptr-24 hrs normoxia) (μM) (HRE-bla ME-180 cells [3]) | EC50 (HRE-bla ME-180 cells [3]) |
| --- | --- | --- | --- | --- |
| CC[C@H](C)[C@H](NC(=O)[C@H](Cc1ccccc1)NC(C)=O)C(=O)N[C@@H](CC(=O)O)C(=O)N[C@@H](CCC(=O)O)C(=O)N[C@@]1(C)CCCC=CCCC[C@@](C)(C(=O)N[C@@H](CC(C)C)C(=O)N[C@H](C(=O)N[C@H](C(=O)N[C@@H](CCC(=O)O)C(=O)N[C@@H](CCSC)C(=O)N[C@@H](C)C(=O)N[C@@H](C)C(=O)N[C@@H](C)C(N)=O)[C@@H](C)CC)C(C)C)NC(=O)[C@H](CCSC)NC(=O)[C@H](CC(C)C)NC(=O)[C@H](C(C)C)NC1=O [SP-117] (Ac-FIDE[S5]VLM[S5]LVIEMAAA-NH2; staple 5-9) | > 700 nM | ++++ (≥30: ++++) | +++ (≤25 but <50: +++) | > 30 µM |
| CCCC[C@H](NC(=O)[C@H](CCC(=O)O)NC(=O)[C@@H](NC(=O)[C@@H](NC(=O)[C@H](CC(C)C)NC(=O)[C@]1(C)CCCC=CCCC[C@](C)(NC(=O)[C@H](CCC(=O)O)NC(=O)[C@H](CC(=O)O)NC(=O)[C@@H](NC(=O)[C@H](Cc2ccccc2)NC(C)=O)[C@@H](C)CC)C(=O)N[C@@H](C)C(=O)N[C@@H](CC(C)C)C(=O)N[C@@H](CCCC)C(=O)N1)C(C)C)[C@@H](C)CC)C(=O)N[C@@H](C)C(=O)N[C@@H](CC(C)C)C(N)=O [SP-138] (Ac-FIDE[S5]AL[Nle][S5]LVIE[Nle]AL-NH2; staple 5-9) | 200 to 400 nM | ++++ (≥30: ++++) | +++ (≤25 but <50: +++) | > 30 µM |
| CCCC[C@H](NC(=O)[C@H](CCC(=O)O)NC(=O)[C@]1(C)CCCC=CCCCCCC[C@@](C)(NC(=O)[C@H](CCC(=O)O)NC(=O)[C@H](C)NC(=O)[C@H](C)NC(=O)[C@H](C)NC(=O)[C@H](C)NC(=O)[C@H](CCC(N)=O)NC(=O)[C@]2(C)CCCC=CCCC[C@](C)(NC(=O)[C@H](CC(C)C)NC(=O)[C@H](CCC(=O)O)NC(=O)[C@H](CCC(=O)O)NC(=O)CNC(=O)[C@H](CCC(N)=O)NC(=O)[C@H](CC(C)C)NC(=O)[C@H](CC(C)C)NC(C)=O)C(=O)N[C@@H](CCCNC(=N)N)C(=O)N[C@@H](C)C(=O)N[C@@H](CC(C)C)C(=O)N2)C(=O)N[C@@H](C(C)C)C(=O)N[C@@H](CC(C)C)C(=O)N[C@@H](CCCC)C(=O)N[C@@H](CO)C(=O)N[C@@H](CC(C)C)C(=O)N[C@@H](C(C)C)C(=O)N1)C(N)=O [SP-359] (Ac-LLQGEEL[S5]RAL[S5]QAAAAE[R8]VL[Nle]SLV[S5]E[Nle]-NH2; staple 8-12, 19-26) | 200 to 400 nM | ++++ (≥30: ++++) | +++ (≤25 but <50: +++) | > 30 µM |
| CC[C@H](C)[C@H](NC(=O)[C@H](CCCNC(=N)N)NC(=O)[C@H](CC(=O)O)NC(=O)[C@H](CC(C)C)NC(=O)[C@H](C)NC(=O)[C@H](CCSC)NC(=O)[C@]1(C)CCCC=CCCC[C@](C)(NC(=O)[C@H](CCSC)NC(=O)[C@H](CC(C)C)NC(=O)[C@@H](NC(=O)[C@H](CCCCN)NC(=O)[C@H](CCC(=O)O)NC(=O)[C@H](CC(=O)O)NC(=O)[C@@H](NC(=O)[C@H](Cc2ccccc2)NC(C)=O)[C@@H](C)CC)C(C)C)C(=O)N[C@@H](CC(C)C)C(=O)N[C@@H](C(C)C)C(=O)N[C@@H]([C@@H](C)CC)C(=O)N1)C(N)=O [SP-283] (Ac-FIDEKVLM[S5]LVI[S5]MALDRI-NH2; staple 9-13) | > 700 nM | ++++ (≥30: ++++) | +++ (≤25 but <50: +++) | > 30 µM |
| CCCC[C@H](NC(=O)[C@H](CC(C)C)NC(=O)[C@@H](NC(=O)[C@H](CCC(=O)O)NC(=O)[C@H](CCC(=O)O)NC(=O)[C@H](CC(=O)O)NC(=O)[C@@H](NC(=O)[C@H](Cc1ccccc1)NC(C)=O)[C@@H](C)CC)C(C)C)C(=O)N[C@@]1(C)CCCC=CCCC[C@@](C)(C(=O)N[C@@H](CCSC)C(=O)N[C@@H](C)C(=O)N[C@@H](CC(C)C)C(N)=O)NC(=O)[C@H]([C@@H](C)CC)NC(=O)[C@H](C(C)C)NC(=O)[C@H](CC(C)C)NC1=O [SP-224] (Ac-FIDEEVL[Nle][S5]LVI[S5]MAL-NH2; staple 9-13) | 400 to 700 nM | ++++ (≥30: ++++) | ++ (≤10 but <25: ++) | > 30 µM |
| CCCC[C@H](NC(=O)[C@H](C)NC(=O)[C@]1(C)CCCC=CCCCCCC[C@@](C)(NC(=O)[C@H](CCC(=O)O)NC(=O)[C@H](CC(=O)O)NC(=O)[C@@H](NC(=O)[C@H](CC(N)=O)NC(=O)[C@@H](NC(=O)[C@H](CCC(N)=O)NC(=O)[C@]2(C)CCCC=CCCC[C@](C)(NC(=O)[C@H](CC(C)C)NC(=O)[C@H](CCC(=O)O)NC(=O)[C@H](CCC(=O)O)NC(=O)CNC(=O)[C@H](CCC(N)=O)NC(=O)[C@H](CC(C)C)NC(=O)[C@H](CC(C)C)NC(C)=O)C(=O)N[C@@H](CCCNC(=N)N)C(=O)N[C@@H](C)C(=O)N[C@@H](CC(C)C)C(=O)N2)C(C)C)[C@@H](C)CC)C(=O)N[C@@H](C(C)C)C(=O)N[C@@H](CC(C)C)C(=O)N[C@@H](CCCC)C(=O)N[C@@H](CO)C(=O)N[C@@H](CC(C)C)C(=O)N[C@@H](C(C)C)C(=O)N1)C(N)=O [SP-363] (Ac-LLQGEEL[S5]RAL[S5]QVNIDE[R8]VL[Nle]SLV[S5]A[Nle]-NH2; staple 8-12, 19-26) | > 700 nM | ++++ (≥30: ++++) | ++ (≤10 but <25: ++) | > 30 µM |
| CCCC[C@H](NC(=O)[C@H](CCC(=O)O)NC(=O)[C@@H](NC(=O)[C@]1(C)CCCC=CCCC[C@](C)(NC(=O)[C@@H](NC(=O)[C@H](CCC(=O)O)NC(=O)[C@H](CCC(=O)O)NC(=O)[C@H](CC(=O)O)NC(=O)[C@@H](NC(=O)[C@H](CC(N)=O)NC(=O)[C@@H](NC(=O)[C@]2(C)CCCC=CCCCCCC[C@@](C)(NC(=O)[C@H](CCC(=O)O)NC(=O)CNC(=O)[C@H](CCC(N)=O)NC(=O)[C@H](CC(C)C)NC(=O)[C@H](CC(C)C)NC(C)=O)C(=O)N[C@@H](CC(C)C)C(=O)N[C@@H](CC(C)C)C(=O)N[C@@H](CCCNC(=N)N)C(=O)N[C@@H](C)C(=O)N[C@@H](CC(C)C)C(=O)N[C@@H](CC(=O)O)C(=O)N2)C(C)C)[C@@H](C)CC)C(C)C)C(=O)N[C@@H](CCCC)C(=O)N[C@@H](CO)C(=O)N[C@@H](CC(C)C)C(=O)N1)[C@@H](C)CC)C(=O)NCC(N)=O [SP-305] (Ac-LLQGE[R8]LLRALD[S5]VNIDEEV[S5][Nle]SL[S5]IE[Nle]G-NH2; staple 6-13, 21-25) | ≤ 200 nM | ++++ (≥30: ++++) | ++++ (≥50: ++++) | > 30 µM |
| CCCC[C@H](NC(=O)[C@H](CCC(=O)O)NC(=O)[C@]1(C)CCCC=CCCCCCC[C@@](C)(NC(=O)[C@H](CCC(=O)O)NC(=O)[C@H](CC(=O)O)NC(=O)[C@@H](NC(=O)[C@H](CC(N)=O)NC(=O)[C@@H](NC(=O)[C@H](CCC(N)=O)NC(=O)[C@]2(C)CCCC=CCCC[C@](C)(NC(=O)[C@H](CC(C)C)NC(=O)[C@H](C)NC(=O)[C@H](CCC(=O)O)NC(=O)CNC(=O)[C@H](CCC(N)=O)NC(=O)[C@H](CC(C)C)NC(=O)[C@H](CC(C)C)NC(C)=O)C(=O)N[C@@H](CCCNC(=N)N)C(=O)N[C@@H](C)C(=O)N[C@@H](CC(C)C)C(=O)N2)C(C)C)[C@@H](C)CC)C(=O)N[C@@H](C(C)C)C(=O)N[C@@H](CC(C)C)C(=O)N[C@@H](CCCC)C(=O)N[C@@H](CO)C(=O)N[C@@H](CC(C)C)C(=O)N[C@@H](C(C)C)C(=O)N1)C(N)=O [SP-361] (Ac-LLQGEAL[S5]RAL[S5]QVNIDE[R8]VL[Nle]SLV[S5]E[Nle]-NH2; staple 8-12, 19-26) | > 700 nM | ++++ (≥30: ++++) | ++ (≤10 but <25: ++) | > 30 µM |
| CCCC[C@H](NC(=O)[C@H](Cc1ccccc1)NC(=O)[C@@H](NC(=O)[C@H](C)NC(=O)[C@H](CCC(N)=O)NC(=O)[C@H](CC(=O)O)NC(=O)[C@@H](NC(=O)[C@H](Cc1ccccc1)NC(C)=O)[C@@H](C)CC)C(C)C)C(=O)N[C@@]1(C)CCCC=CCCC[C@@](C)(C(=O)N[C@@H](CCC(N)=O)C(=O)N[C@@H](C)C(=O)N[C@@H](CC(C)C)C(=O)N[C@@H](CC(C)C)C(N)=O)NC(=O)[C@H]([C@@H](C)CC)NC(=O)[C@H](C(C)C)NC(=O)[C@H](Cc2c[nH]cn2)NC1=O [SP-260] (Ac-FIDQAVF[Nle][S5]HVI[S5]QALL-NH2; staple 9-13) | > 700 nM | + (<5: +) | ++++ (≥50: ++++) | ≤ 5 µM |
